28 molecules from patent US20230303486A1, “CYCLOBUTYL-UREA DERIVATIVES” (Idorsia Pharmaceuticals Ltd, priority 2020, published 2023) can be followed below.

The test system of the experiment is primary neuronal cultures from embryonic rat brains. Nature of the experiment: Rat oscillation assay (FLIPR, neuronal calcium oscillations). It is filed as cell-based. The conditions noted are these: Rattus norvegicus. On the procedure:
This assay is a functional phenotypic assay designed to mimic epileptic seizures using primary neuronal cultures from embryonic rat brains, which form a functional neuronal network that generate synchronized intracellular calcium concentration oscillations when cultured at high density in 384-well plate. The epileptic phenotype is induced by incubating the neurons in magnesium-free assay buffer, that results in increased probability of NMDA receptor activation, leading to an increased frequency and amplitude of intracellular calcium oscillations. Once neurons are incubated with the calcium indicator dye Fluo-8 AM (Tebu-bio), neuronal calcium oscillations can be monitored in real time using FLIPR® Tetra (fluorometric plate reader, Molecular Devices). With these recordings, the effect of anti-epileptic drugs can be quantified. The anti-epileptic effect of compounds, which activate directly or indirectly the Kv7 channels can be modulated by the Kv7 channel blocker XE-991. The assay was performed as described previously (Pacico N, Mingorance-Le Meur A. New In Vitro Phenotypic Assay for Epilepsy: Fluorescent Measurement of Synchronized Neuronal Calcium Oscillations. PLoS ONE 9(1) 2014) with modifications described hereafter.
Animal care followed standard procedures in accordance with swiss institutional guidelines. Dissociated neuronal cultures were obtained from cerebral cortices of embryonic Wistar rats at embryonic stage E18 (Charles River). The uterine horns were removed by caesarian surgery from deeply anesthetized rats (Isofurane) and sacrificed by decapitation. The embryos were decapitated by closing forceps. The brains were isolated and dissected one by one in ice-cold PBS (Life Technologies) under optical control using a binocular. Meninges, olfactory bulbs, and basal ganglia were removed. Cortical hemispheres (still including the hippocampus) were cut in small pieces with tweezers and placed on ice in prechilled Hibernate-E medium (Life technology). The hemispheres were then incubated in 10 mL of Hibernate-E containing 15 U/mL papain (Worthington) for 25 min at 30° C. with gentle mixing every 10 min. Genomic DNA was then digested by prolonging the incubation during 10 min at 37° C. in presence of 4 U/mL rDNase I (Ambion). The obtained suspension was then centrifuged at 800 g for 5 min and the cell pellet was resuspended in 2 mL Hibernate-E and gently dissociated by pipetting up and down 10 times with a plastic Pasteur pipette resulting in a homogenous cell suspension. This suspension was immediately filtered through a 70 µm cell strainer (MACS® SmartStrainer, Miltenyi), collected in 10 mL Hibernate-E and centrifuged at 800 g for 5 min. The cell pellet was resuspended in Neurobasal medium, supplemented with 2% B-27, 0.5 mM Glutamax-I, 100 U/mL penicillin, 100 µg/mL streptomycin (Life Technologies) and diluted at the final concentration of 300′000 cells/mL. One day before plating the cells, 384-well plates were coated with 25 µL/well of 0.1 % poly-L-lysine solution (Sigma), incubated overnight at 37° C., washed two times with sterile distilled water and allowed to dry at room temperature for >2 h. The neurons were seeded at a density of 15′000 cells/well in 50 µL/well in a 384-well black, clear-bottomed plates (Corning) and subsequently maintained in an incubator at 37° C., 5% CO2 and 95% humidity for 8 to 10 days. After 3 and 7 days, 40% of media was renewed under sterile conditions.
Neurons seeded in the assay plates were washed with Hank’s balanced salt solution (HBSS) devoid of Ca^2+ and Mg^2+, supplemented with 20 mM HEPES (Life Technologies) and 2 mM CaCl2 (Sigma), pH 7.4 (hereafter called Assay buffer) using a Biotek EL406 plate washer. Neurons were loaded with 1 µM Fluo-8 AM in Assay buffer for 15 min at 37° C., 5% CO2. […]

The mark [1] stands for this setting: 20 min, 20 min after compound addition, AUC of fluorescence, read-out: FLIPR: IC50 [nM] 20 min.
Where [2] appears, read: Cortical neurone, acute phase, ratio of AUC fluorescence before and after compound addition, rat cortical neurons, Mg-free buffer, read-out: FLIPR: IC50 [nM] acute.

Read-outs that look alike come from different tables or passages of the source.

Turning to `COCC(NC(=O)NC12CC(C(F)F)(C1)C2)c1cccc(C(F)(F)F)c1` (centres unmarked) [Example 14, 1-(3-Difluoromethyl-bicyclo[1.1.1]pent-1-yl)-3-[2-methoxy-1-(3-trifluoromethyl-phenyl)-ethyl]-urea], the IC50 – broadly, the concentration at which inhibition is half-maximal – was 79 nM under setting [1] and 37 nM under setting [2].

For the molecule `O=C(NCc1cccc(C(F)(F)F)c1F)NC12CC(C(F)F)(C1)C2` [Example 15, 1-(3-Difluoromethyl-bicyclo[1.1.1]pent-1-yl)-3-(2-fluoro-3-trifluoromethyl-benzyl)-urea], the IC50 reads like this: under setting [1], 960 nM; under setting [2], 619 nM.

In the case of `O=C(NCc1cc(F)cc(C(F)(F)F)c1)NC12CC(C(F)F)(C1)C2` [Example 16, 1-(3-Difluoromethyl-bicyclo[1.1.1]pent-1-yl)-3-(3-fluoro-5-trifluoromethyl-benzyl)-urea], the IC50 is, setting by setting: under setting [1], 848 nM; under setting [2], 716 nM.

Turning to `O=C(NCc1cccc(OCC(F)(F)F)c1)NC12CC(F)(C1)C2` [Example 17, 1-(3-Fluoro-Bicyclo[1.1.1]Pent-1-yl)-3-[3-(2,2,2-Trifluoro-Ethoxy)-Benzyl]-Urea], the IC50 under setting [1] amounted to 239 nM and the IC50 under setting [2] came out at 202 nM.

On to `O=C(NCc1cccc(OCC(F)(F)F)c1)NC1CC(C(F)F)C1` (centres unmarked) [Example 18, 1-(3-Difluoromethyl-cyclobutyl)-3-[3-(2,2,2-trifluoro-ethoxy)-benzyl]-urea], for which the IC50 under setting [1] came to 1080 nM and the IC50 under setting [2] worked out at 377 nM.

On to `O=C(NCc1cccc(OCC(F)(F)F)c1)NC12CC(C(F)(F)F)(C1)C2` [Example 19, 1-[3-(2,2,2-Trifluoro-ethoxy)-benzyl]-3-(3-trifluoromethyl-bicyclo[1.1.1]pent-1-yl)-urea], for which the IC50 runs as follows: under setting [1], 111 nM; under setting [2], 50 nM.

In the case of `O=C(NCc1cccc(OC(F)F)c1)NC12CC(F)(C1)C2` [Example 20, 1-(3-Difluoromethoxy-Benzyl)-3-(3-Fluoro-Bicyclo[1.1.1]Pent-1-yl)-Urea], the IC50 runs as follows: under setting [1], 467 nM; under setting [2], 566 nM.

In the case of `O=C(NCc1cccc(OC(F)F)c1)NC1CC(C(F)F)C1` (centres unmarked) [Example 21, 1-(3-Difluoromethoxy-benzyl)-3-(3-difluoromethyl-cyclobutyl)-urea], the IC50 under setting [1] came to 942 nM and the IC50 under setting [2] is 373 nM.

Turning to `O=C(NCc1cccc(OC(F)F)c1)NC12CC(C(F)(F)F)(C1)C2` [Example 22, 1-(3-Difluoromethoxy-benzyl)-3-(3-trifluoromethyl-bicyclo[1.1.1]pent-1-yl)-urea], the IC50 by setting is: under setting [1], 311 nM; under setting [2], 134 nM.

For `O=C(NCc1cccc(OC(F)(F)F)c1)NC1CC(C(F)F)C1` (centres unmarked) [Example 25, 1-(3-Difluoromethyl-cyclobutyl)-3-(3-trifluoromethoxy-benzyl)-urea], the IC50 reads like this: under setting [1], 610 nM; under setting [2], 235 nM.

With `O=C(NCc1cccc(OC(F)(F)F)c1)NC12CC(C1)C2` [Example 26, 1-Bicyclo[1.1.1]pent-1-yl-3-(3-trifluoromethoxy-benzyl)-urea], the IC50 is 315 nM under setting [1] and 295 nM under setting [2].

In the case of `O=C(NCc1cccc(C(F)F)c1)NC1CC(C(F)F)C1` (centres unmarked) [Example 27, 1-(3-Difluoromethyl-Benzyl)-3-(3-Difluoromethyl-Cyclobutyl)-Urea], the IC50 is, setting by setting: under setting [1], 1730 nM; under setting [2], 1340 nM.

Take `O=C(NCc1cccc(C(F)F)c1)NC12CC(C(F)(F)F)(C1)C2` [Example 28, 1-(3-Difluoromethyl-Benzyl)-3-(3-Trifluoromethyl-Bicyclo[1.1.1]Pent-1-yl)-urea]: the IC50 runs as follows: under setting [1], 203 nM; under setting [2], 117 nM.

For `O=C(NCc1ccnc(OC(F)(F)F)c1)NC1CC(C(F)F)C1` (centres unmarked) [Example 29, 1-(3-Difluoromethyl-Cyclobutyl)-3-(2-Trifluoromethoxy-Pyridin-4-Ylmethyl)-Urea], the half-maximal inhibitory concentration (IC50) reads like this: under setting [1], 2150 nM; under setting [2], 367 nM.

On to `O=C(NCc1ccnc(OC(F)(F)F)c1)NC12CC(C(F)(F)F)(C1)C2` [Example 30, 1-(2-Trifluoromethoxy-Pyridin-4-Ylmethyl)-3-(3-Trifluoromethyl-Bicyclo[1.1.1]Pent-1-yl)-Urea], for which the IC50 is, setting by setting: under setting [1], 1480 nM; under setting [2], 804 nM.

Regarding `O=C(NCc1cccc(C(F)(F)F)c1)NC12CC(C1)C2` [Example 35, 1-Bicyclo[1.1.1]Pent-1-yl-3-(3-Trifluoromethyl-Benzyl)-Urea], the IC50 runs as follows: under setting [1], 717 nM; under setting [2], 231 nM.

As for `O=C(NCc1cccc(C(F)(F)F)c1)NC12CC(F)(C1)C2` [Example 36, 1-(3-Fluoro-bicyclo[1.1.1]pent-1-yl)-3-(3-trifluoromethyl-benzyl)-urea], the IC50 runs as follows: under setting [1], 344 nM; under setting [2], 245 nM.

In the case of `O=C(NCc1cccc(C(F)(F)F)c1)NC1CC(C(F)F)C1` (centres unmarked) [Example 38, 1-(3-Difluoromethyl-cyclobutyl)-3-(3-trifluoromethyl-benzyl)-urea], the half-inhibitory concentration (IC50) stood at 390 nM under setting [1] and 135 nM under setting [2].

Regarding `CC12CC(NC(=O)NCc3cccc(C(F)(F)F)c3)(C1)C2` [Example 39, 1-(3-Methyl-bicyclo[1.1.1]pent-1-yl)-3-(3-trifluoromethyl-benzyl)-urea], the IC50 is, setting by setting: under setting [1], 68 nM; under setting [2], 41 nM.

Take `O=C(NCc1cccc(C(F)(F)F)c1)NC12CC(CF)(C1)C2` [Example 40, 1-(3-Fluoromethyl-bicyclo[1.1.1]pent-1-yl)-3-(3-trifluoromethyl-benzyl)-urea]: the IC50 is 248 nM under setting [1] and 149 nM under setting [2].

Take `O=C(NCc1cccc(C(F)(F)F)c1)NC1CC(C(F)(F)F)C1` (centres unmarked) [Example 41, 1-(3-Trifluoromethyl-benzyl)-3-(3-trifluoromethyl-cyclobutyl)-urea]: the IC50 reads like this: under setting [1], 117 nM; under setting [2], 73 nM.

For `O=C(NCc1cccc(C(F)(F)F)c1)NC1CC(O)(C(F)(F)F)C1` (centres unmarked) [Example 42, 1-(3-Hydroxy-3-trifluoromethyl-cyclobutyl)-3-(3-trifluoromethyl-benzyl)-urea], the IC50 under setting [1] amounted to 1920 nM and the IC50 under setting [2] was determined as 1170 nM.

On to `O=C(NCc1ccnc(OCC(F)(F)F)c1)NC12CC(C1)C2` [Example 43, 1-Bicyclo[1.1.1]Pent-1-yl-3-[2-(2,2,2-Trifluoro-Ethoxy)-Pyridin-4-Ylmethyl]-Urea], for which the IC50 is, setting by setting: under setting [1], 967 nM; under setting [2], 578 nM.

`O=C(NCc1ccnc(OCC(F)(F)F)c1)NC12CC(F)(C1)C2` [Example 44, 1-(3-Fluoro-bicyclo[1.1.1]pent-1-yl)-3-[2-(2,2,2-trifluoro-ethoxy)-pyridin-4-ylmethyl]-urea]: the IC50 stood at 1350 nM under setting [1] and 591 nM under setting [2].

Regarding `O=C(NCc1ccnc(OCC(F)(F)F)c1)NC12CC(C(F)(F)F)(C1)C2` [Example 45, 1-[2-(2,2,2-Trifluoro-ethoxy)-pyridin-4-ylmethyl]-3-(3-trifluoromethyl-bicyclo[1.1.1]pent-1-yl)-urea], the IC50 runs as follows: under setting [1], 701 nM; under setting [2], 131 nM.

For the molecule `O=C(NCc1ccnc(OCC(F)(F)F)c1)NC1CC(C(F)F)C1` (centres unmarked) [Example 46, 1-(3-Difluoromethyl-cyclobutyl)-3-[2-(2,2,2-trifluoro-ethoxy)-pyridin-4-ylmethyl]-urea], the IC50 by setting is: under setting [1], 257 nM; under setting [2], 148 nM.

With `O=C(NCc1cccc(C(F)(F)F)c1)NC12CCC(C1)C2` [Example 48, 1-Bicyclo[2.1.1]Hex-1-yl-3-(3-Trifluoromethyl-Benzyl)-Urea], the IC50 is 484 nM under setting [1] and 232 nM under setting [2].

Take `CC1(NC(=O)NCc2cccc(C(F)(F)F)c2)CC(F)(F)C1` [Example 49, 1-(3,3-Difluoro-1-Methyl-Cyclobutyl)-3-(3-Trifluoromethyl-Benzyl)-Urea]: the IC50 under setting [1] was determined as 628 nM and the IC50 under setting [2] is 247 nM.
